Assay type in all cases: in vivo
The test system of experiment [1] is Beet Armyworm (Spodoptera exigua). Description: Bioassay on Beet Armyworm (BAW), 128-well diet tray assay. As to conditions: Beet Armyworm, Table ABC, read-out: BAW rating. Summed up:
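Percent mortality, averaged over eight wells, was scored after five to seven days at 25° C under 14:10 light-dark. Each well's diet carried 50 μg/cm^2 of test molecule applied in acetone-water (90:10) and dried before one to five second-instar larvae were added.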

For experiment [2], the system named is Cabbage Looper (Trichoplusia ni). Description: Bioassay on Cabbage Looper (CL), 128-well diet tray assay. Conditions: Cabbage Looper, Table ABC, read-out: CL rating. Summed up: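 Mortality after five to seven days at 25° C (14:10 photoperiod), averaged over eight wells per compound. Diet in each well carried 50 μg/cm^2 of dried test molecule and received one to five second-instar larvae.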

In experiment [3] the test system is Yellow Fever Mosquito (Aedes aegypti). As to the kind of experiment: Bioassay on Yellow Fever Mosquito (YFM) larvae, 96-well plate. Conditions: Table ABC. Summed up: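 About 1-day-old larvae in water with liver powder were added to wells holding compound from a 4000 ppm DMSO master diluted in 90:10 water:acetone. Plates covered and kept at room temperature for 3 days, then each well scored for mortality on a rating scale.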

`Cc1cc(C(/C=C(\F)c2ccc(C(=O)N[C@H](C)C(=O)N(C)CC(F)(F)F)c(C(F)(F)F)c2)C(F)(F)F)cc(Cl)c1Cl` (stereo partly drawn) [PF14, 4-((Z)-3-(3,4-Dichloro-5-methylphenyl)-1,4,4,4-tetrafluorobut-1-en-1-yl)-N—((R)-1-(methyl(2,2,2-trifluoroethyl)amino)-1-oxopropan-2-yl)-2-(trifluoromethyl)benzamide]: the pest or weed control at 50 µg/cm2 in experiment [1] and in experiment [2] was 50 to 100% in each case. In experiment [3], the YFM rating entry is given as “A (80-100)”.

`Cc1cc(C(/C=C(\F)c2ccc(C(=O)NC3(C(=O)NCC(F)(F)F)CC3)c(C(F)(F)F)c2)C(F)(F)F)cc(Cl)c1Cl` (stereo not drawn) [PF15]: the pest or weed control at 50 µg/cm2 in experiment [1] and in experiment [2] was 50 to 100% throughout. Further, in experiment [3], the YFM rating result is “B (More than 0-Less than 80)”.

As for `CN(CC(F)(F)F)C(=O)CNC(=O)c1ccc(/C(F)=C/C(c2ccc(Cl)c(F)c2)C(F)(F)F)cc1C(F)(F)F` (stereo not drawn) [PF18, (Z)-4-(3-(4-Chloro-3-fluorophenyl)-1,4,4,4-tetrafluorobut-1-en-1-yl)-N-(2-(methyl(2,2,2-trifluoroethyl)amino)-2-oxoethyl)-2-(trifluoromethyl)benzamide], the pest or weed control at 50 µg/cm2 in experiment [1] and in experiment [2] was 50 to 100% throughout. Moreover, the YFM rating result in experiment [3] is reported as “B (More than 0-Less than 80)”.

Take `C[C@@H](NC(=O)c1ccc(/C(F)=C/C(c2ccc(Cl)c(F)c2)C(F)(F)F)cc1C(F)(F)F)C(=O)NCC(F)(F)F` (stereo partly drawn) [PF19, 4-((Z)-3-(4-Chloro-3-fluorophenyl)-1,4,4,4-tetrafluorobut-1-en-1-yl)-N—((R)-1-oxo-1-((2,2,2-trifluoroethyl)amino)propan-2-yl)-2-(trifluoromethyl)benzamide]: the pest or weed control at 50 µg/cm2 in experiment [1] and in experiment [2] was 50 to 100% each time. For the same compound, in experiment [3], the YFM rating result is “B (More than 0-Less than 80)”.

For `C[C@@H](NC(=O)c1ccc(/C(F)=C/C(c2ccc(Cl)c(F)c2)C(F)(F)F)cc1C(F)(F)F)C(=O)N(C)CC(F)(F)F` (stereo partly drawn) [PF20, 4-((Z)-3-(4-Chloro-3-fluorophenyl)-1,4,4,4-tetrafluorobut-1-en-1-yl)-N—((R)-1-(methyl(2,2,2-trifluoroethyl)amino)-1-oxopropan-2-yl)-2-(trifluoromethyl)benzamide], the pest or weed control at 50 µg/cm2 in experiment [1] and in experiment [2] was 50 to 100% each time. Moreover, the YFM rating entry in experiment [3] is given as “B (More than 0-Less than 80)”.

As to `CN(CC(F)(F)F)C(=O)C1(NC(=O)c2ccc(/C(F)=C/C(c3ccc(Cl)c(F)c3)C(F)(F)F)cc2C(F)(F)F)CC1` (stereo not drawn) [PF22, (Z)-4-(3-(4-Chloro-3-fluorophenyl)-1,4,4,4-tetrafluorobut-1-en-1-yl)-N-(1-(methyl(2,2,2-trifluoroethyl)carbamoyl)cyclopropyl)-2-(trifluoromethyl)benzamide], the pest or weed control at 50 µg/cm2 in experiment [1] and in experiment [2] was 50 to 100% throughout. Further, in experiment [3], the YFM rating entry is recorded as “B (More than 0-Less than 80)”.

For the compound `C[C@@H](NC(=O)c1ccc(/C(F)=C/C(c2ccc(Br)c(Cl)c2)C(F)(F)F)cc1C(F)(F)F)C(=O)NCC(F)(F)F` (stereo partly drawn) [PF25], the pest or weed control at 50 µg/cm2 in experiment [1] and in experiment [2] was 50 to 100% in each case. Moreover, the YFM rating result in experiment [3] is recorded as “B (More than 0-Less than 80)”.

As to `C[C@@H](NC(=O)c1ccc(/C(F)=C/C(c2cc(Cl)cc(Br)c2)C(F)(F)F)cc1C(F)(F)F)C(=O)N(C)CC(F)(F)F` (stereo partly drawn) [PF31, 4-((Z)-3-(3-Bromo-5-chlorophenyl)-1,4,4,4-tetrafluorobut-1-en-1-yl)-N—((R)-1-(methyl(2,2,2-trifluoroethyl)amino)-1-oxopropan-2-yl)-2-(trifluoromethyl)benzamide], the pest or weed control at 50 µg/cm2 in experiment [1] and in experiment [2] was 50 to 100% in each case. Further, the YFM rating entry in experiment [3] is on record as “B (More than 0-Less than 80)”.

`CN(CC(F)(F)F)C(=O)C1(NC(=O)c2ccc(/C(F)=C/C(c3cc(Cl)cc(Br)c3)C(F)(F)F)cc2C(F)(F)F)CC1` (stereo not drawn) [PF33, (Z)-4-(3-(3-Bromo-5-chlorophenyl)-1,4,4,4-tetrafluorobut-1-en-1-yl)-N-(1-(methyl(2,2,2-trifluoroethyl)carbamoyl)cyclopropyl)-2-(trifluoromethyl)benzamide]: the pest or weed control at 50 µg/cm2 in experiment [1] and in experiment [2] was 50 to 100% throughout. In experiment [3], the YFM rating result is recorded as “B (More than 0-Less than 80)”.

With `CN(CC(F)(F)F)C(=O)CNC(=O)c1ccc(/C(F)=C/C(c2ccc(Cl)c(Br)c2)C(F)(F)F)cc1C(F)(F)F` (stereo not drawn) [PF35, (Z)-4-(3-(3-Bromo-4-chlorophenyl)-1,4,4,4-tetrafluorobut-1-en-1-yl)-N-(2-(methyl(2,2,2-trifluoroethyl)amino)-2-oxoethyl)-2-(trifluoromethyl)benzamide], the pest or weed control at 50 µg/cm2 in experiment [1] and in experiment [2] was 50 to 100% in each case. Moreover, in experiment [3], the YFM rating entry is “B (More than 0-Less than 80)”.

Consider `C[C@@H](NC(=O)c1ccc(/C(F)=C/C(c2ccc(Cl)c(Br)c2)C(F)(F)F)cc1C(F)(F)F)C(=O)N(C)CC(F)(F)F` (stereo partly drawn) [PF37, 4-((Z)-3-(3-Bromo-4-chlorophenyl)-1,4,4,4-tetrafluorobut-1-en-1-yl)-N—((R)-1-(methyl(2,2,2-trifluoroethyl)amino)-1-oxopropan-2-yl)-2-(trifluoromethyl)benzamide], for which the pest or weed control at 50 µg/cm2 in experiment [1] and in experiment [2] was 50 to 100% throughout. For the same compound, the YFM rating entry in experiment [3] was “B (More than 0-Less than 80)”.

In the case of `CN(CC(F)(F)F)C(=O)C1(NC(=O)c2ccc(/C(F)=C/C(c3ccc(Cl)c(Br)c3)C(F)(F)F)cc2C(F)(F)F)CC1` (stereo not drawn) [PF39, (Z)-4-(3-(3-Bromo-4-chlorophenyl)-1,4,4,4-tetrafluorobut-1-en-1-yl)-N-(1-(methyl(2,2,2-trifluoroethyl)carbamoyl)cyclopropyl)-2-(trifluoromethyl)benzamide], the pest or weed control at 50 µg/cm2 in experiment [1] and in experiment [2] was 50 to 100% in each case. Also, in experiment [3], the YFM rating result is “B (More than 0-Less than 80)”.

With `O=C(CNC(=S)c1ccc(/C(F)=C/C(c2cc(Cl)c(Cl)c(Cl)c2)C(F)(F)F)cc1C(F)(F)F)NCC(F)(F)F` (stereo not drawn) [PF82, (Z)-2-(4-(1,4,4,4-tetrafluoro-3-(3,4,5-trichlorophenyl)but-1-en-1-yl)-2-(trifluoromethyl)phenylthioamido)-N-(2,2,2-trifluoroethyl)acetamide], the pest or weed control at 50 µg/cm2 in experiment [1] and in experiment [2] was 50 to 100% each time. Further, in experiment [3], the YFM rating result was “A (80-100)”.

For `O=C(NCC(=S)NCC(F)(F)F)c1ccc(/C(F)=C/C(c2cc(Cl)c(Cl)c(Cl)c2)C(F)(F)F)cc1C(F)(F)F` (stereo not drawn) [PF94, (Z)-4-(1,4,4,4-tetrafluoro-3-(3,4,5-trichlorophenyl)but-1-en-1-yl)-N-(2-thioxo-2-((2,2,2-trifluoroethyl)amino)ethyl)-2-(trifluoromethyl)benzamide], the pest or weed control at 50 µg/cm2 in experiment [1] and in experiment [2] was 50 to 100% each time. The YFM rating result in experiment [3] is reported as “A (80-100)”.

Values taken from patent US10251394B2, “Molecules having pesticidal utility, and intermediates, compositions, and processes, related thereto” (Dow AgroSciences LLC, priority 2016, dated 2019).
